Source: EP2932958A1, “COSMETIC AND PHARMACEUTICAL APPLICATIONS OF N-ACETYLHYDROXYPROLINE” (Beiersdorf AG, priority 2007, dated 2008)

Assays:
BSA [1] = target: T1, BSA (Bos taurus, UniProt P02769); assay: AGE-fluorescence of BSA incubated with DHA (part B, samples II); assay type: biochemical, Bovine; conditions: BSA 1%, DHA 1%
Description: (§1) The samples had the following composition: • A: only BSA (1%) • B: BSA (1%) with DHA (1%) • C: BSA (1%) with Hydroxyproline and DHA (1 %) • D: BSA (1%) with N-Acetylhydroxyproline (NAHP) and DHA (1%) • E: BSA (1%) with Proline and DHA (1%) • F: BSA (1%) with Acetylproline and DHA (1%)
(§2) Each sample (A-F) was tested twice (I+II) with the difference that I. was conducted with 0.17 % of each inhibitor (Proline, Hydroxyproline, Acetylproline or NAHP) and II. was conducted with 9.82 mM of each inhibitor.
Samples A-F (II) were further tested regarding the inhibition of the formation of other AGEs (different from CML). To this end, the AGE-fluorescence at λex=370 nm and λem= 440 nm was measured. The wavelengths used are those proposed by Bellmunt et al., Lung 173 (1995), 177-85 and used by many laboratories.

BSA [2] = target: T1, BSA; assay: Inhibition of BSA-CML formation with glucose, dot-blot with CML-specific antibody (part A); assay type: biochemical, Bovine; conditions: BSA 1.035 %, glucose 1 M, 7 days at 50°C, various amounts of NAHP
Description: BSA samples of were incubated with glucose for 7 days at 50°C in the presence of various amounts of NAHP and thereafter analysed for their CML-content using a dot-blot approach. An antibody which is specific for the CML modifications of immobilised proteins (in this case BSA) on a nitrocellulose membrane was used to make the CML modifications visible. […] The stronger the intensity of each dot in the above series, the higher is the concentration of CML-modifications on the BSA. The control consists of BSA without glycation agent (glucose). Each single dot was quantified for its intensity leading to the results which are shown diagrammatically in Figure 10.
The concentration of BSA was 1.035 % (10.35 mg/ml) and the concentration of glucose in each sample was 1 M.

[3] = system: age spots (senile lentigo); assay: Lightening effect on undesired skin pigmentation (age spots); assay type: in vivo; conditions: after seven days
Source text: Undesired and uneven skin pigmentation such as, e.g., age spots (senile lentigo) are a major problem associated with the aging of skin and skin appendages. N-acetylhydroxyproline has an effect with respect to the lightening of age spots.

BSA [4] = target: T1, BSA; assay: Inhibition of CML glycation of BSA with DHA, dot-blot (part B); assay type: biochemical, Bovine; conditions: BSA 1%, DHA 1%, 1 day at 50°C; series I 0.17 % and II 9.82 mM of inhibitor
Description: Samples (A-F) were incubated for 1 day at 50°C and analysed for CML-content using the dot-blot approach set forth above in A. The dot-blot results are shown in Figure 11.
as §1, §2
The intensity of each dot was quantified. The results are represented in Figure 12.

BSA [5] = target: T1, BSA; assay: BSA-Glucose Assay of AGE formation at pH 5 and pH 7 (part F); assay type: biochemical, Bovine; conditions: BSA with glucose, 7 days at 50°C
Description: As acetylated compounds result in a decrease in the pH, the effect of NAHP was compared at two different pH values (pH 5 and pH 7). As described in Section A, the BSA-Glucose Assay was used. To stabilize the pH the adjustment was performed after the addition of the inhibitor.
After incubation of BSA with glucose for 7 days at 50°C a significant increase in AGE fluorescence is detectable. An acidic environment (pH 5) results in a much less intensive AGE-formation in the BSA-Glucose Assay than a neutral, environment (pH 7).

human fibroblasts [6] = assay: Vimentin redistribution to a perinuclear aggregate after glyoxal treatment (immunofluorescence microscopy); assay type: cell-based
Description: To determine whether the loss of contractile capacity is the result of a CML-induced redistribution of vimentin, immunofluorescence microscopic analysis of fibroblasts with and without glyoxal treatment were employed. […] About 90% of the fibroblasts were affected after incubation for 7 days.
For immunostaining, cells were fixed in 3% paraformaldehyde for 30 minutes at room temperature, washed with PBS and permeabilized with 0.5% Triton X-100 for 5 minutes; after which the cells were blocked with 3% BSA for 30 minutes. Cells were then incubated with primary antibody in 1% BSA for 1 hour. […] Cells were then incubated for 1 hour with 1% BSA solution containing fluorescence-labelled secondary antibodies (AlexaFluor 488 chicken-anti-mouse IgG, AlexaFluor 594 donkey-anti-goat IgG, AlexaFluor 546 donkey-anti-goat IgG, Molecular Probes, Eugene, Oregon) at 1:1,000 to visualise the target protein and DAPI (Molecular Probes, Eugene, Oregon). After extensive washing with PBS fluorescence images were recorded on a fluorescence microscope (Olympus, Hamburg, Germany) with an attached […] camera. Confocal fluorescence images were recorded on LSM 510 Meta (Carl Zeiss, Jena, Germany). […]

[7] = system: Primary human fibroblasts; assay: CML formation in fibroblasts after glyoxal treatment (FACS, immunoblot, immunoprecipitation); assay type: cell-based; conditions: 200 µM glyoxal for 7 days
Description: To test the effect of CML-modifications on vimentin function cells were treated with glyoxal to induce CML-vimentin modifications in fibroblasts. Primary human fibroblasts were incubated with 200 µM glyoxal for 7 days to enhance CML formation^18,20,28. […] The higher rate of CML-vimentin formation leads to a predominant modification of vimentin in the linker region of the molecule.
Proteins from cell extracts (20 µg per lane) were separated by gel electrophoresis under denaturing conditions on 10% SDS-PAGE gels. Immunoblotting was performed following standard procedures using chemiluminescence methods. […] Signals were quantified using LumiAnalyst (Boehringer Mannheim, Germany). […]
Fibroblasts were incubated for 7 days with 200 µM glyoxal^18,20. […] After 3 washing steps with PBS the fluorescence was measured using FACSCanto (BD Biosciences, San Jose, USA) and analysed by the software BD FACSDiva 4.0.
Human fibroblasts were incubated for 7 days with 200 µM glyoxal^18,20 and tested for CML formation using FACS analysis as described above (a). Quantitative analysis of (a) is shown in panel (b, right columns) together with quantitative analysis of dot-blots as described in the legend to Fig.4 and the Methods section (b, left columns). […] Additionally, the two cell populations were lysed, vimentin was immunoprecipitated and analysed for CML-modification by SDS-page and immunoblotting. […]

human fibroblasts [8] = assay: Contraction capacity of fibroblasts in 3D free-floating collagen lattices; assay type: cell-based; conditions: glyoxal treated vs control fibroblasts, n=10, p=0.00056
Description: Further, normal fibroblasts were compared with fibroblasts with a higher CML-vimentin modification with respect to contractile capacities. The contractile capacity was determined using 3D free-floating collagen lattices^29,30.
100 mg Type I collagen (Sigma, St. Louis, USA) was dissolved at 4°C in 33.3 ml of 0.1% sterile acetic acid. 0.9 ml of 10x Hank's Buffer Salt Solution (Biochrom, Berlin, Germany) was added to 4.5 ml of this solution of collagen. 1.9 ml of 0.1% acetic acid was supplemented. NaOH was added dropwise to neutralise the solution. 1.5 x 10^5 fibroblasts were resuspended in 0.1 ml FCS and added to the solution for each ml of the gel. Casy Model TT (Schärfe System, Reutlingen, Germany) was used to count the fibroblasts and to control their viability. […] Diameters were measured at 0 hours and 24 hours. […]
Human fibroblasts were incubated for 7 days with 200 µM glyoxal^18,20 and tested for CML formation using FACS analysis as described above (a). Quantitative analysis of (a) is shown in panel (b, right columns) together with quantitative analysis of dot-blots as described in the legend to Fig.4 and the Methods section (b, left columns). […] Additionally, the two cell populations were lysed, vimentin was immunoprecipitated and analysed for CML-modification by SDS-page and immunoblotting. […] The contraction of these lattices was measured after 48h. […]

T1 sequence (P02769 25-607): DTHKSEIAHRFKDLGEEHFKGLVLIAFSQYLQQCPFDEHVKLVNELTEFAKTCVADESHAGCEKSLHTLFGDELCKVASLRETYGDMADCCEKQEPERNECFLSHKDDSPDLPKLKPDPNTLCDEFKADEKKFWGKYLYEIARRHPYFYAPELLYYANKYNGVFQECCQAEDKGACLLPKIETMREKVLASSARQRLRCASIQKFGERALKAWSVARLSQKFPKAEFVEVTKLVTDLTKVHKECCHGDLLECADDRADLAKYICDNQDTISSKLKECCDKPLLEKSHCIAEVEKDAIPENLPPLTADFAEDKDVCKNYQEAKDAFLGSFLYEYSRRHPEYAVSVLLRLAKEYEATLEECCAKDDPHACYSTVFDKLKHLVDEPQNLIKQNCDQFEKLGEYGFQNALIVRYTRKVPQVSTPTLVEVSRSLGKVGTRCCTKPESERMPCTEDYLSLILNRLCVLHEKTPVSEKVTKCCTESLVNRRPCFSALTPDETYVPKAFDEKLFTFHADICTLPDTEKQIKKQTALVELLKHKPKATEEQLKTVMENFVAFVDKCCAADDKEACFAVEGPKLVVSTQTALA

Structure (SMILES) | formation of fluorescent AGEs (AGE-fluorescence at λex=370 nm and λem= 440 nm) (BSA [1]; 9.82 mM inhibitor (samples II)) | brownish color of AGEs in the solution (BSA [1]; samples II, digital picture) | CML glycation of BSA (dot-blot intensity) (BSA [2]) | brightness of the treated age spot [3] | inhibitory effect on the CML-glycation of BSA (dot-blot intensity) (BSA [4]) | AGE-formation (AGE fluorescence) at pH 5 (BSA [5]; pH 5) | AGE-formation (AGE fluorescence) at pH 7 (BSA [5]; pH 7) | fibroblasts showing perinuclear vimentin aggregate formation (human fibroblasts [6]; 200 µM glyoxal for 2 days) | fibroblasts affected by vimentin aggregate formation (human fibroblasts [6]; 200 µM glyoxal, incubation for 7 days) | CML as measured by FACS and immunoblot analysis [7] | contractile capacity of fibroblasts in 3D collagen lattices (human fibroblasts [8])
CC(=O)N1C[C@H](O)C[C@H]1C(=O)O [NAHP, N-acetylhydroxyproline] | inhibited | absent | protective effect on BSA, preventing the CML glycation of this protein | increase in brightness | strongest inhibitory effect | reduced AGE-formation | reduced AGE-formation | – | – | – | –
CC(=O)N1CCC[C@H]1C(=O)O [Acetylproline, reference compound] | – | – | – | – | potent inhibitor of the CML-glycation, but to a lesser extent than NAHP | – | – | – | – | – | –
O=CC=O [glyoxal] | – | – | – | – | – | – | – | About 70% | About 90% | massive increase of CML | significantly reduced
